The term pIC50 denotes the negative decadic logarithm of the IC50, by convention in mol/L. What is called pKi is the Ki on a negative log10 scale, so that one unit is a factor of ten. In general, inhibition refers to the drop in the measured response relative to a control, in per cent. Higher therefore signals a strong effect.

pIC50, pKi: −log10 of the molar value. Read-outs that look alike come from different tables or passages of the source.

These results are taken from patent US9597323B2, “Aminoester derivatives” (CHIESI FARMACEUTICI S.p.A., priority 2015, dated 2017).

For one test, the target named is T1, Human M3 receptor (Homo sapiens, UniProt P20309).
T1 construct: purchased Perkin Elmer
Put plainly: M3 Receptor radioligand binding assay. The following applies: for pKi: calculated from IC50 by Cheng and Prusoff equation. The protocol: M3 Receptor Radioligand Binding Assay:
The assay is carried out in 96-well polypropylene plates in a volume of 250 μl. […] The final assay concentration of DMSO is 0.5% (v/v). The plates are sealed and incubated for 2 h at room temperature on an orbital shaker (slow speed). Membranes are harvested onto 96-well unifilter GF/C filter plates pre-treated with 0.5% polyethyleneimine (v/v), using a filter manifold, washed four times with 200 μl of assay buffer. The plates are dried before addition of 50 μl of microscint-0, sealed then read in a Trilux Microbeta scintillation counter. IC50 values are determined from competition curves using a non-linear curve fitting program. Ki values are calculated from IC50 values by the Cheng and Prusoff equation.

For the next test, the target named is Human recombinant PDE4B2 (Homo sapiens, UniProt Q07343). Briefly: PDE4B2 HTRF assay. Type of test: biochemical. Here is the method: PDE4B2 activity is detected using the LANCE Ultra cAMP homogeneous time resolved fluorescence resonance energy transfer (TR-FRET) assay from Perkin Elmer. The assay is based on the competition between the europium (Eu) chelate-labeled cAMP tracer and sample cAMP for binding sites on cAMP-specific monoclonal antibodies (mAb) labelled with the ULight™ dye. The assay is carried out in 384-well low volume plates in a volume of 10 μl. Human recombinant PDE4B2 (80 pM) is incubated for 2 h with 3 nM cAMP in buffer containing 1×HBSS, 5 mM HEPES, 3 mM MgCl2, 0.1% BSA, pH 7.4 with or without test compounds. The enzymatic reactions are efficiently stopped by the addition of 500 μM IBMX present in the combined Stop/Detection buffer containing europium (Eu) chelate-labeled cAMP tracer and cAMP-specific monoclonal antibodies (mAb) labelled with the ULight™ dye. […] IC50 values are determined from competition curves using a non-linear curve fitting program.
On the technique in general: Time-resolved FRET reads energy transfer from a long-lived donor to a nearby acceptor.

The subject of test [1] is Cch-evoked bronchoconstriction. Briefly: Bronchospasm, percentage of inhibition (Cch-induced bronchoconstriction in rats). The class given is in vivo, rat. The following applies: for inhibition at 16 h: 16 h after intratracheal administration of the sub-maximal inhibition dose; for sub-maximal inhibition Dose [inhibition at 1 h]: dose producing about 80% inhibition of the bronchospasm after 1 h, intratracheal. The protocol: Protocol of Bronchospasm-Percentage of Inhibition Animals Male CD Sprague Dawley rats (220-250 g) were purchased from Charles River Laboratories Italy (Calco, Lecco). Prior to use animals were acclimated for at least 5 days to the local vivarium conditions (room temperature: 20-24° C.; relative humidity: 40-70%), having free access to standard rat chow and softened tap water. All the procedures were performed in animal operating rooms according to ethical guidelines for the conduct of animal research (D. L.vo 116/92). […] Animals were anaesthetized with Urethane (1.2 g/kg, i.p.) and a laryngoscope was moved forward into the mouth to visualize the trachea and guide the insertion of the tip of a custom made small diameter cannula directly into the trachea and located 1-2 mm above the bifurcation. […] The target concentration was obtained by dilution of the DMSO stock in saline. Test compounds were instilled locally into the trachea in a volume of 125 μl. Experimental Procedure In order to assess the residual inhibitory activity of test compounds at 1 to 16 hours after their administration, rats were surgically prepared. In order to assess the Cch-induced bronchoconstriction in rats, the infusion of physiological solution was stopped and the bronchospastic agent injected into the jugular vein using the same cannula. Soon after washing the cannula with saline to ensure the complete administration of the bronchoconstrictor agent, the saline infusion was started again. Body temperature was kept constant at 37° C. by a heated blanket. The trachea was cannulated and the lungs were ventilated artificially with a small animal constant volume ventilator (rodent ventilator mod. 7025, Ugo Basile, Comerio, Varese, Italy) at a frequency of 80 strokes/min and at a tidal volume of 2.5 ml/kg. To avoid spontaneous breathing, the animals were injected intravenously (i.v.) with pancuronium bromide (2 mg/kg). Bronchoconstriction was induced by the i.v. injection of Cch 50 μg/kg. In control experiments, repeated injections of this dose produced reproducible short-lasting (1-2 min duration) bronchospasms. Bronchoconstriction, quantified as a reduction of tidal volume, was evaluated according to the method described by Konzett & Roessler in Konzett H. and Roessler R. (1940). Versuchanornungzu untersuchungen […]. Arch. Exp. Path. Pharmak.; 195:71-74, which is incorporated herein by reference in its entirety. Systemic blood pressure and changes in airway resistance were monitored with a digital pressure transducer connected to a bridge amplifier (PowerLab; Ugo Basile, Italy) and recorded using Chart 5 software (Ugo Basile, Italy). […] The effect of test compounds was expressed as % inhibition of Cch-evoked bronchoconstriction in time-matched, vehicle-treated, animals (controls).

The subject of the next test is COPD patients. The following applies: cited from earlier work.
The mark [2] stands for this setting: patients with severe disease, frequent exacerbations and mucus hypersecretion.

T1 sequence (P20309 whole entry): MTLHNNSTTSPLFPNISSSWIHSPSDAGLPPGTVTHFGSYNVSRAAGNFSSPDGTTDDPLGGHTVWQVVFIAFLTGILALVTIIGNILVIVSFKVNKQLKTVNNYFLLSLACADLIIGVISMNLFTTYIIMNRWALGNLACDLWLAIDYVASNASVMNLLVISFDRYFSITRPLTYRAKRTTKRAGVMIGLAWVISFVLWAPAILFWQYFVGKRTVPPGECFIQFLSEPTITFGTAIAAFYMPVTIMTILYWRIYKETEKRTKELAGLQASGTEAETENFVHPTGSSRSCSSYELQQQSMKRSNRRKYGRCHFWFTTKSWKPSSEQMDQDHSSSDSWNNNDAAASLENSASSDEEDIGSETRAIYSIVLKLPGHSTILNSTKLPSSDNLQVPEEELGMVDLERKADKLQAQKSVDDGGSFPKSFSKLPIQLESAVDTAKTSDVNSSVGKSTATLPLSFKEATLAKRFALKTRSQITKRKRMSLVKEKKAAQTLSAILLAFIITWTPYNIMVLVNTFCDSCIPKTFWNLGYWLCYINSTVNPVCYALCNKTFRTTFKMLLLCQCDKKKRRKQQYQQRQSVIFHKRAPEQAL
Sequence of Human recombinant PDE4B2 (Q07343 1-564 isoform Q07343-2): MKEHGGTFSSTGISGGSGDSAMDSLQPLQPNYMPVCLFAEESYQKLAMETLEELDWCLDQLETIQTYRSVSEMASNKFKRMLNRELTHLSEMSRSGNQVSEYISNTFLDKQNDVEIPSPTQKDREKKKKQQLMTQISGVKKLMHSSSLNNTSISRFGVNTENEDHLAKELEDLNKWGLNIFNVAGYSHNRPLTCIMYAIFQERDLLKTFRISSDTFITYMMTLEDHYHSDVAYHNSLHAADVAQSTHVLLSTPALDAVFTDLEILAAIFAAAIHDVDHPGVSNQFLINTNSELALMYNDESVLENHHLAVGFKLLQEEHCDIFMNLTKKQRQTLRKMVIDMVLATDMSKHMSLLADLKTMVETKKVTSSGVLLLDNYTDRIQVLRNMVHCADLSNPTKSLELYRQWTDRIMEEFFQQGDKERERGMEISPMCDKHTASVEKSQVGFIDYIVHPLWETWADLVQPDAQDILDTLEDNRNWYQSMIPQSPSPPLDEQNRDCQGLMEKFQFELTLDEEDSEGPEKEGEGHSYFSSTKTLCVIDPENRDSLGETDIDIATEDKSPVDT

As for `COc1ccc([C@H](Cc2c(Cl)c[n+]([O-])cc2Cl)OC(=O)c2cccc(CNC(C(=O)OCC3CCN(C)CC3)c3ccccc3)c2)cc1OC` (mixture of isomers) [Example 1, [(1S)-2-(3,5-dichloro-1-oxido-pyridin-1-ium-4-yl)-1-(3,4-dimethoxyphenyl)ethyl] 3-[[[2-[(1-methyl-4-piperidyl)methoxy]-2-oxo-1-phenyl-ethyl]amino]methyl]benzoate], the results for the pIC50 at Human M3 receptor (read-out: M3 IC50 activity) and on Human recombinant PDE4B2 were 8.00 to 9.00 and more than 9.00, respectively.
Take `COc1ccc([C@H](Cc2c(Cl)c[n+]([O-])cc2Cl)OC(=O)c2ccc(CNC(C(=O)OCC3CCN(C)CC3)c3ccccc3)cc2)cc1OC` (single isomer, unassigned) [Example 2]: the pIC50 at Human M3 receptor (read-out: M3 IC50 activity) and on Human recombinant PDE4B2 was 8.00 to 9.00 throughout.
As to `COc1ccc([C@H](Cc2c(Cl)c[n+]([O-])cc2Cl)OC(=O)c2ccc(CNC(C(=O)OC3CCN(C)CC3)c3ccccc3)cc2)cc1OC` (single isomer, unassigned) [Example 7C, reference compound], the pKi at Human M3 receptor was 10.05. For the same molecule, the pIC50 on Human M3 receptor (read-out: M3 IC50) is 9.77. Also, in test [1], the “inhibition at 16 h” value is on record as less than 10% and the “sub-maximal inhibition Dose [inhibition at 1 h]” value is 3 nmol/kg.
For the molecule `COc1ccc([C@H](Cc2c(Cl)c[n+]([O-])cc2Cl)OC(=O)c2ccc(CNC(C(=O)OCC3CCN(C)CC3)c3ccccc3)cc2)cc1OC` (single isomer, unassigned) [Example 7], the pKi on Human M3 receptor was 9.35. Also, the pIC50 on Human M3 receptor (read-out: M3 IC50) is 9.05; on Human M3 receptor (read-out: M3 IC50 activity) it was more than 9.00; on Human recombinant PDE4B2, 8.00 to 9.00. For the same molecule, the “inhibition at 16 h” value in test [1] is more than 90%. Further, in test [1], the “sub-maximal inhibition Dose [inhibition at 1 h]” value is reported as 30 nmol/kg.
On to `COc1ccc([C@H](Cc2c(Cl)c[n+]([O-])cc2Cl)OC(=O)c2cccc(CNC(C(=O)OCC3CCN(C)CC3)c3ccccc3)c2)cc1OC` (stereo partly drawn) [Example 5, [(1S)-2-(3,5-dichloro-1-oxido-pyridin-1-ium-4-yl)-1-(3,4-dimethoxyphenyl)ethyl] 3-[[[2-[(1-methyl-4-piperidyl)-methoxy]-2-oxo-1-phenyl-ethyl]amino]methyl]benzoate], for which the pIC50 at Human M3 receptor (read-out: M3 IC50 activity) and on Human recombinant PDE4B2 was 8.00 to 9.00 each time.
As to `COc1ccc([C@H](Cc2c(Cl)c[n+]([O-])cc2Cl)OC(=O)c2ccc(CNC(C(=O)OCC3CCN(C)CC3)c3cccc(O)c3)cc2)cc1OC` (stereo partly drawn) [Example 11, [(1S)-2-(3,5-dichloro-1-oxido-pyridin-1-ium-4-yl)-1-(3,4-dimethoxyphenyl)ethyl] 4-[[[1-(3-hydroxyphenyl)-2-[(1-methyl-4-piperidyl)-methoxy]-2-oxo-ethyl]amino]methyl]benzoate], the pIC50 on Human M3 receptor (read-out: M3 IC50 activity) and on Human recombinant PDE4B2 was 8.00 to 9.00 each time.
Consider `O=C(Nc1c(Cl)cncc1Cl)c1ccc(OC(F)F)c(OCC2CC2)c1` [roflumilast], for which the “reduction of numbers of neutrophils in sputum” value in the test on COPD patients (COPD patients, oral, over four weeks) is 36%. For the same molecule, in the test with COPD patients (setting [2]), the “improvement of FEV 1” value is recorded as “approximately 50 mL” and the reduction of exacerbation result is listed as “about 15%”.
